In PubChem BioAssay (NCI) one finds TGI data, which are given here for 15 compounds.

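Interpolation was linear, between the two tested concentrations surrounding the appropriate level; five concentrations were tested over 48 hours in 96-well plates. At the TGI there is no net growth.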

Holding throughout (assay): NCI anticancer screen, dose series, 48 h
Assay [1] relates to K-562 leukemia.
Assay [2] deals with SK-OV-3 ovarian.
Assay [3] concerns SK-MEL-5 melanoma.
Assay [4] has as its system HT29 colon.
Assay [5] deals with HOP-62 NSCLC.
Assay [6] relates to NCI-H226 lung.
Assay [7] has as its system MDA-N.
Assay [8] deals with UACC-62 melanoma.
Assay [9] relates to TK-10 renal.
For assay [10], the system named is SN12C renal.
Assay [11] has as its system U251 CNS.
In assay [12] the test system is T-47D breast.
Assay [13] has as its system 786-0 renal.
The test system of assay [14] is SR leukemia.
In assay [15] the test system is PC-3 prostate.
Assay [16] relates to MDA-MB-231 breast.
Assay [17] deals with BT-549 breast.
Assay [18] deals with SNB-19 CNS.
Assay [19] has as its system NCI-H522 lung.
The subject of assay [20] is CCRF-CEM leukemia.

As for `COC(=O)C1(c2cc3ccccc3n2S(=O)(=O)c2ccccc2)CC2C=CC1NC2` (stereo not drawn), the TGI in assay [1] came out at 5.01 µM; in assay [2] it was 13.2 µM; in [3] it was 16.7 µM; in assay [4], 4.44 µM; in assay [5] it was 3.92 µM; in assay [6], 21.4 µM. The TGI in [7] came out at 6.23 µM; in [8] it was 3.31 µM; in [9] it was 4.85 µM; in assay [10], 4.69 µM; in assay [11] it was 2.75 µM; in assay [12], 13.5 µM. The TGI amounted to 2.9 µM in [13]; 0.427 µM in [14]; 3.05 µM in assay [15]; 3.67 µM in assay [16]; 6.48 µM in [17]; 5.98 µM in [18].

Consider `OC1(c2ccccc2)CC2CCC(C1)N2CCCC1(c2ccc(F)cc2)OCCO1` (stereo not drawn), for which the TGI is greater than 100 µM in assay [1]; greater than 100 µM in assay [2]; greater than 100 µM in assay [19]; 44.3 µM in [3]; greater than 100 µM in assay [4]; greater than 100 µM in [5]. For the same compound, the TGI in [7], in assay [8], in assay [20], in assay [9], in assay [10] and in assay [11] was greater than 100 µM throughout. In addition, the TGI was greater than 100 µM in assay [12]; 32.4 µM in assay [13]; greater than 100 µM in assay [14]; greater than 100 µM in assay [15]; greater than 100 µM in [16]; greater than 100 µM in assay [17].

On to `c1cc(Sc2nc(Sc3ccncc3)nc(Sc3ccncc3)n2)ccn1`, for which the TGI in assay [1], in [2], in assay [19], in assay [3], in [4] and in [5] was greater than 100 µM throughout. The TGI in assay [6], in assay [7], in assay [8], in [20], in assay [9] and in assay [10] was greater than 100 µM in each case. For the same compound, the TGI in assay [11], in [12], in [13], in assay [15], in assay [16] and in assay [17] was greater than 100 µM each time. In [18], this compound came in with a TGI greater than 100 µM.

Consider `Cn1nc2ccc3nccc(N4CCN(CCO)CC4)c3c2n1`, for which the TGI in assay [1], in [2], in [19], in assay [3], in [4] and in assay [5] was greater than 100 µM each time. Moreover, the TGI in [6], in [7], in assay [8], in assay [20], in assay [9] and in [10] was greater than 100 µM each time. Further, the TGI in assay [11], in assay [12], in [13], in assay [15], in assay [16] and in assay [17] was greater than 100 µM each time. The TGI in [18] was greater than 100 µM.

Consider `Oc1ccccc1/C=N/Nc1nc(N/N=C/c2ccccc2O)nc(N/N=C/c2ccccc2O)n1`, for which the TGI in assay [1], in assay [2], in assay [19], in assay [3], in [4] and in assay [5] was greater than 100 µM each time. In addition, the TGI in [6], in assay [7], in assay [8], in [9], in [10] and in assay [11] was greater than 100 µM in each case. In addition, the TGI in assay [12], in assay [13], in assay [14], in assay [15], in [16] and in assay [17] was greater than 100 µM each time. Moreover, the TGI in assay [18] is greater than 100 µM.

Regarding `CC(=O)Nc1ccc(NC(=O)c2c(Cl)c(Cl)c(Cl)c(Cl)c2-c2nc3ccccc3[nH]2)cc1`, the TGI in assay [1], in assay [2], in assay [19], in assay [3], in [4] and in assay [5] was greater than 100 µM throughout. Moreover, the TGI in assay [6], in [7], in assay [8], in assay [20], in assay [10] and in assay [12] was greater than 100 µM each time. Moreover, the TGI in assay [13], in assay [14], in assay [15], in assay [17] and in [18] was greater than 100 µM throughout.

As to `COc1cc(NC(C)=O)ccc1C(=O)N/N=C/c1ccc(Cl)cc1Cl`, the TGI in [1], in assay [2], in [19], in [3], in assay [4] and in [5] was greater than 100 µM each time. The TGI is greater than 100 µM in assay [6]; 72.7 µM in assay [7]; greater than 100 µM in [8]; greater than 100 µM in [20]; 64.6 µM in assay [10]; 70.8 µM in assay [12]. The TGI in assay [13] is 64.4 µM; in assay [14], greater than 100 µM; in [15] it was greater than 100 µM; in [17], greater than 100 µM; in assay [18], greater than 100 µM.

Take `CC(=O)O[C@H]1C(=O)[C@@]2(C)[C@H]([C@H](OC(=O)c3cccc(C(F)(F)F)c3)[C@]3(O)C[C@H](OC(=O)[C@H](O)[C@@H](NC(=O)c4ccccc4)c4ccccc4)C(C)=C1C3(C)C)[C@]1(OC(C)=O)CO[C@@H]1C[C@@H]2O`: the TGI in assay [1] was 4.85 µM; in [2], greater than 25 µM; in assay [19], 0.0175 µM; in assay [3] it was 4.33 µM; in assay [4] it was 3.84 µM; in [5], greater than 14.2 µM. The TGI in [6] is 11.6 µM; in assay [7], less than 0.0025 µM; in assay [8], 8 µM; in assay [20], 0.368 µM; in assay [9], 8.88 µM; in assay [10], greater than 25 µM. Moreover, the TGI was 0.0196 µM in assay [11]; greater than 25 µM in assay [12]; 4.49 µM in [13]; 3.72 µM in assay [14]; greater than 13.1 µM in assay [16]; greater than 15.5 µM in [17]. Besides, the TGI in assay [18] is greater than 25 µM.

As to `NNC(=O)c1ccccc1NC(=O)/C(=C/c1ccccc1O)NC(=O)c1ccccc1`, the TGI in assay [1] was greater than 100 µM; in assay [2], greater than 100 µM; in assay [19], 47.4 µM; in assay [3] it was greater than 100 µM; in [4], greater than 100 µM; in [6], greater than 100 µM. Further, the TGI in assay [7], in assay [8], in assay [20], in [9], in assay [10] and in [11] was greater than 100 µM throughout. Further, the TGI is greater than 100 µM in [12]; greater than 100 µM in assay [13]; greater than 100 µM in assay [14]; greater than 100 µM in assay [16]; greater than 100 µM in assay [17]; 79.7 µM in assay [18].

On to `Cc1ccc(NN=NCCCCN)cc1`, for which the TGI in assay [2], in assay [19], in [3], in assay [4], in [5] and in [6] was greater than 100 µM in each case. In addition, the TGI in [7], in [8], in assay [20], in assay [9], in [10] and in assay [12] was greater than 100 µM throughout. For the same compound, the TGI in [13], in assay [14], in assay [16], in [17] and in [18] was greater than 100 µM in each case.

Consider `COc1ccc(C(=O)Cn2c(C(=O)/C=C/c3ccco3)nc3ccccc32)cc1`, for which the TGI in assay [1] is greater than 100 µM; in assay [2], 97.4 µM; in assay [3] it was greater than 100 µM; in [4], greater than 100 µM; in assay [5] it was greater than 100 µM; in assay [6], greater than 100 µM. The TGI in assay [7], in [8], in assay [20], in assay [9], in assay [10] and in [11] was greater than 100 µM each time. Besides, the TGI in assay [12], in [13], in [14], in assay [15], in assay [16] and in [17] was greater than 100 µM in each case. In [18], this compound came in with a TGI greater than 100 µM.

Take `C=C(C)C1Cc2c(cc(O)c3c(=O)c4c(oc23)C(O)Oc2cc(OC)c(OC)cc2-4)O1` (stereo not drawn): the TGI in assay [1], in [4], in [5], in assay [6], in assay [7] and in [8] was greater than 10 µM each time. Moreover, the TGI in assay [20], in assay [9], in assay [10], in assay [11], in [12] and in [13] was greater than 10 µM in each case. Further, the TGI in assay [14], in assay [15], in [16], in assay [17] and in assay [18] was greater than 10 µM throughout.

Turning to `COC(=O)c1ccccc1C1CN=NC12Cc1ccc(C)c(C)c1C2=O` (stereo not drawn), the TGI in [1], in assay [2], in assay [19], in assay [3], in [4] and in assay [5] was greater than 100 µM each time. Moreover, the TGI in [6], in assay [7], in [8], in assay [20], in [9] and in assay [10] was greater than 100 µM in each case. The TGI in assay [11], in assay [12], in assay [13], in assay [15], in assay [16] and in assay [17] was greater than 100 µM throughout. In assay [18], this compound had a TGI greater than 100 µM.

Take `c1ccc(N=C(Nc2ccccc2)N2CCCCC2)cc1`: the TGI in assay [1], in assay [2], in [19], in assay [4], in [5] and in assay [6] was greater than 100 µM throughout. The TGI in [7], in assay [8], in assay [20], in assay [9], in assay [10] and in assay [11] was greater than 100 µM in each case. In addition, the TGI in assay [12], in assay [13], in assay [14], in [15], in [17] and in assay [18] was greater than 100 µM in each case.

With `O=C1C(N2CCNCC2)=C(Cl)C(=O)c2ncccc21`, the TGI in [1], in assay [2], in assay [3], in assay [4], in assay [5] and in [6] was greater than 10 µM throughout. Also, the TGI in assay [7], in [8], in assay [20], in assay [9], in assay [10] and in assay [11] was greater than 10 µM throughout. The TGI in assay [12], in assay [13], in assay [14], in assay [15], in assay [16] and in assay [17] was greater than 10 µM each time. Moreover, in assay [18], the TGI is greater than 10 µM.
